From ChEMBL document CHEMBL1201862, “PubChem BioAssay data set” (2004) come the findings set out here.

Assay [1] has as its target Sphingosine 1-phosphate receptor 1 (Homo sapiens, UniProt P21453). The experiment in a line: Fluorescence-based counterscreen assay for S1P4 agonists: Cell-based dose response high throughput screening assay to identify agonists of the Sphingosine 1-Phosphate Receptor 1 (S1P1). [Related pubchem assays (depositor defined):AID1509, AID1523, AID1801, AID463107, AID463118, AID463119, AID463122, AID463123, AID463129, AID463225, AID504400, AID504460]. It is filed as functional.

The target in the next assay is T1, Aminopeptidase N (Plasmodium falciparum FcB1/Columbia, UniProt O96935).
T1 sequence (O96935 whole entry): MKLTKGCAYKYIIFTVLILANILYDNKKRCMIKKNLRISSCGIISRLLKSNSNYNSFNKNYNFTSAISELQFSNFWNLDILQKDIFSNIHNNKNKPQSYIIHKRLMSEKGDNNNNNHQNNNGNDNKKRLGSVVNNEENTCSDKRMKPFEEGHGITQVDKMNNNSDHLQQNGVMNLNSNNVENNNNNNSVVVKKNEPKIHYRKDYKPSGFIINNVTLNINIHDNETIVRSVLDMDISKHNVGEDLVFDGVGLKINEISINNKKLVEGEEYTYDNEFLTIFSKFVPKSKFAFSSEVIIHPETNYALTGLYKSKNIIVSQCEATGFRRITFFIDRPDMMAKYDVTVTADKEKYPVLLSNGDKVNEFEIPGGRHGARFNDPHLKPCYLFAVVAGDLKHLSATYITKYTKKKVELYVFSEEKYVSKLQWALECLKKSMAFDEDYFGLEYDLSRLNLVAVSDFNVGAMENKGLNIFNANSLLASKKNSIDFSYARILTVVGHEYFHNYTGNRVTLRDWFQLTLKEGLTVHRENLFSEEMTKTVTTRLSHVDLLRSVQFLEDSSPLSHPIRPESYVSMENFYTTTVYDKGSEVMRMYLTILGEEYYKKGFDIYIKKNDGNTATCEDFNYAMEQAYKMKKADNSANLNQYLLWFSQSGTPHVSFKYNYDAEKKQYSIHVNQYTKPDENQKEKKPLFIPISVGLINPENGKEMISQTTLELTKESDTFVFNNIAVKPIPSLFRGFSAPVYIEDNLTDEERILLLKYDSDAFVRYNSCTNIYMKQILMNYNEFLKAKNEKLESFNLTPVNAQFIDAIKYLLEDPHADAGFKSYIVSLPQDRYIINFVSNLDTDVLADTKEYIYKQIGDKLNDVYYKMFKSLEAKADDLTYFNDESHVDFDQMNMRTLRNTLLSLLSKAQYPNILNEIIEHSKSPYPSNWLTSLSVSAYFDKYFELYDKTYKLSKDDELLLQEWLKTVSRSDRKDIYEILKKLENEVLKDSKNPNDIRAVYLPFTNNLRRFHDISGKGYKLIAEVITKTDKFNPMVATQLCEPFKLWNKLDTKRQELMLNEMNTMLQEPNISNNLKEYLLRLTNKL
Kind of assay: P. falciparum M1AAP inhibitors, biochemical, fluorogenic H-Leu-NHMec substrate, 1536-well (AID 1445). Set-up: species or system Plasmodium falciparum 3D7, 3D7.

Assay [2] deals with Sphingosine 1-phosphate receptor 4 (Homo sapiens, UniProt O95977). The experiment in a line: Fluorescence dose response cell-based high throughput screening assay for agonists of the Sphingosine 1-Phosphate Receptor 4 (S1P4). [Related pubchem assays: 1509 (Primary screen.), 1523 (Confirmation screen in triplicates.)]. It is filed as functional.
Assay [3] concerns the target Sphingosine 1-phosphate receptor 2 (Homo sapiens, UniProt O95136). The experiment in a line: Dose Response Cell Based Assay for Agonists of the S1P2 Receptor. [Related pubchem assays: 729, 736, 843 ]. It is filed as functional.
The nature of assay [4]: Counterscreen for AddAB inhibitors: absorbance-based bacterial cell-based high throughput dose response assay for inhibitors of bacterial viability. [Related pubchem assays (depositor defined):AID435030, AID449728, AID449731, AID488942, AID488955, AID488956]. It is filed as functional. On the technique in general: A counterscreen serves to expose hits that act by an unwanted route or on another target.

The target of another assay is Exodeoxyribonuclease V (Escherichia coli (strain K12), UniProt P04993+P07648+P08394). The experiment in a line: E. coli RecBCD inhibitors, dose response, counter-screen for AddAB inhibitor project, absorbance, V66 E. coli, mutant T4 phage (AID 492957). It is filed as functional, cell-based, Escherichia coli str. K-12 substr. MG1655.
The target of assay [5] is T2, Peroxisome proliferator-activated receptor gamma (Homo sapiens, UniProt P37231).
T2 sequence (P37231 whole entry): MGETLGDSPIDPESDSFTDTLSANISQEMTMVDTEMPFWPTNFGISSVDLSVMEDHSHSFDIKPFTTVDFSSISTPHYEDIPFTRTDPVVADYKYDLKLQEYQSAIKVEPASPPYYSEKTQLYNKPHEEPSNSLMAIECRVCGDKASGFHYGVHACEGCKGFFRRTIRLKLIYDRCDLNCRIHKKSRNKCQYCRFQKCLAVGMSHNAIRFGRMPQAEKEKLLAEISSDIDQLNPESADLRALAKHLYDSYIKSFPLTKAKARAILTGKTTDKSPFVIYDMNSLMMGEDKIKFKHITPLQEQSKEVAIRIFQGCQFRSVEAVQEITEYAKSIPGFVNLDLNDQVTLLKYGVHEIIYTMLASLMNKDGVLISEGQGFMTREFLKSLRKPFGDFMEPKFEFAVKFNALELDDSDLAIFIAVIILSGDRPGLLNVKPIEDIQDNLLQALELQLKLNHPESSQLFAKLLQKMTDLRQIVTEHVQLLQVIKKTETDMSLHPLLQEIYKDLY
Kind of assay: PPARg ligand-binding domain binders, dose response, PPARg partial agonist project, biochemical, TR-FRET, LanthaScreen (AID 504446).

For assay [6], the target named is T2, Peroxisome proliferator-activated receptor gamma. The experiment in a line: PPARg ligand-binding domain binders, dose response, PPARg partial agonist project, biochemical, fluorescence polarization, PolarScreen (AID 504453).
Assay [7] shares this target. The experiment in a line: PPARg partial agonists, dose response, cell-based, luminescence, assay provider (AID 504447). It is filed as functional.
Assay [8] addresses DNA damage-inducible transcript 3 protein (Mus musculus, UniProt P35639). It is filed as functional, Cricetulus griseus.
Assay [9] can be described thus: Luminescence Cell-Based Dose Response HTS to Identify Activators of Luciferase Translation or Activity in H4 […] Cells. [Related pubchem assays: 1829 (Project Summary), 1814 (Primary HTS)]. It is filed as functional.
For the next assay, the target named is Troponin, cardiac muscle (Homo sapiens, UniProt P19429+P45379+P63316). The experiment in a line: Fluorescence-based biochemical high throughput dose response assay for activators of the calcium sensitivity of cardiac Regulated Thin Filaments (RTF). [Related pubchem assays (depositor defined):AID493008, AID493018, AID504382, AID504383]. It is filed as protein-complex assay.

A short description of assay [10]: fluorescence interference artefacts, compound only, dose response, artefact control for cardiac thin filament activator project, biochemical, no RTF in test wells (AID 504697).
Assay [11] has as its target Signal transducer and activator of transcription 1-alpha/beta (Homo sapiens, UniProt P42224). The experiment in a line: STAT3 inhibitors, late-stage profile, late-stage follow-up, cell-based, STAT1 panel, qPCR, cytotoxicity, panel member STAT1 Inhibition (AID 2078). (In general: Real-time PCR tracks product formation cycle by cycle.)
Assay [12] concerns the target Signal transducer and activator of transcription 3 (Homo sapiens, UniProt P40763). Kind of assay: STAT3 inhibitors, late-stage profile, late-stage follow-up, cell-based, STAT1 panel, qPCR, cytotoxicity, panel member STAT3 Inhibition (AID 2078).
The target in assay [13] is Kappa-type opioid receptor (Homo sapiens, UniProt P41145). The experiment in a line: SAR analysis of small molecule agonists of the kappa opioid receptor via a luminescent beta-arrestin assay - Set 3. [Related pubchem assays (depositor defined):AID1777, AID1785, AID1786, AID1966, AID2133, AID2136, AID2284, AID2500]. It is filed as functional.
Assay [14] deals with Voltage-dependent T-type calcium channel subunit alpha-1H (Homo sapiens, UniProt O95180). The experiment in a line: Cav3.2 T-type channel blockers, cell-based, SynthLib3 library, HEK293 Cav3.2, fluorescence (AID 493041). It is filed as functional.
Assay [15] concerns the target Intestinal-type alkaline phosphatase (Homo sapiens, UniProt P09923). The experiment in a line: human intestinal alkaline phosphatase activators, dose response, biochemical, luminescence, uHTS hits (AID 463120). It is filed as functional.
The target of another assay is T3, Coagulation factor XII (Homo sapiens, UniProt P00748).
T3 sequence (P00748 whole entry): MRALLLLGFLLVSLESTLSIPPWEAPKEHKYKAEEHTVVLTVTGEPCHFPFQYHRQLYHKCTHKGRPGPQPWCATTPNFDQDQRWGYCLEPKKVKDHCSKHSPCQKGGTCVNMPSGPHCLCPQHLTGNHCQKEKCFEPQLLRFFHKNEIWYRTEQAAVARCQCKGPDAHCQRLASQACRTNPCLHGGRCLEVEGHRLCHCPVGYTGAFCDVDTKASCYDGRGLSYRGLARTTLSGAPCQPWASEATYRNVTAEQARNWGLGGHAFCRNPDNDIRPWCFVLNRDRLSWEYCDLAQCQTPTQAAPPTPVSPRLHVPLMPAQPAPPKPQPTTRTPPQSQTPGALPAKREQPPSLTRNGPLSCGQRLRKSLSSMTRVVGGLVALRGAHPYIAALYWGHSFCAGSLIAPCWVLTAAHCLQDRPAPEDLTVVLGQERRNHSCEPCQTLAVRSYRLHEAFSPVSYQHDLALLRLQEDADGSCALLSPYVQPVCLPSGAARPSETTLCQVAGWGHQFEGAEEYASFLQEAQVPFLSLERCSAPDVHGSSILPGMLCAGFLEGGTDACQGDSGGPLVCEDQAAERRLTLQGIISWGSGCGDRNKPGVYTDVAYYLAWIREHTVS
The experiment in a line: Factor XIIa Dose Response Confirmation from Single Well HTS. [Related pubchem assays (depositor defined):AID701]. It is filed as functional.

Each structure is given as a SMILES string. The source made the active and inactive calls. Where only a bound is given, the exact number is not on record here.

Chain of Sphingosine 1-phosphate receptor 2 (O95136 whole entry): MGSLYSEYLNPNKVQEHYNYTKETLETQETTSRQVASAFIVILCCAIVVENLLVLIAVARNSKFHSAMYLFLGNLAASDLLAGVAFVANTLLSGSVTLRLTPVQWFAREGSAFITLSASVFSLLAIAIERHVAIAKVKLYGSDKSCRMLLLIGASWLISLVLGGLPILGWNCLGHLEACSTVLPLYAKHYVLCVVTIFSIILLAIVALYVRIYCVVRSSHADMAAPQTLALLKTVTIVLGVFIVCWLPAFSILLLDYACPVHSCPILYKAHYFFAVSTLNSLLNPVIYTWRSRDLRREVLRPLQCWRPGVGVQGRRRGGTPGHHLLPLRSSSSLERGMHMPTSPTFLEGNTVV
Chain of Intestinal-type alkaline phosphatase (P09923 whole entry): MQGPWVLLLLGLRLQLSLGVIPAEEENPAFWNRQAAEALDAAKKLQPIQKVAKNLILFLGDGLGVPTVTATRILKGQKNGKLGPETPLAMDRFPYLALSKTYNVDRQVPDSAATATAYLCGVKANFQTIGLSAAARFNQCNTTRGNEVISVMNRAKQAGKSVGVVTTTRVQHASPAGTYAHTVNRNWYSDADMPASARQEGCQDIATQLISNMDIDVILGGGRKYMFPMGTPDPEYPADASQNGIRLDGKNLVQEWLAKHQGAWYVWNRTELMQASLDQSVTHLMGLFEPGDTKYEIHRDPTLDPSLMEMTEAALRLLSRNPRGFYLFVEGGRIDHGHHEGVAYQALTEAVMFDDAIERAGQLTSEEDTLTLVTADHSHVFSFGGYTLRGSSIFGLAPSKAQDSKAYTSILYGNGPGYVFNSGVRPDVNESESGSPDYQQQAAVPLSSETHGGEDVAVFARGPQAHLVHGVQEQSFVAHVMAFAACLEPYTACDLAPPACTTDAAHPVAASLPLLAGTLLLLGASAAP
Chain of DNA damage-inducible transcript 3 protein (P35639 whole entry): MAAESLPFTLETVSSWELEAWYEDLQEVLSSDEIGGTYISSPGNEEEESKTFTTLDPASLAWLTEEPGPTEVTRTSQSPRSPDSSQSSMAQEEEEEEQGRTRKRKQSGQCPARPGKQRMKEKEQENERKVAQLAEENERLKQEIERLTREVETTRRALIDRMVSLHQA
Chain of Kappa-type opioid receptor (P41145 whole entry): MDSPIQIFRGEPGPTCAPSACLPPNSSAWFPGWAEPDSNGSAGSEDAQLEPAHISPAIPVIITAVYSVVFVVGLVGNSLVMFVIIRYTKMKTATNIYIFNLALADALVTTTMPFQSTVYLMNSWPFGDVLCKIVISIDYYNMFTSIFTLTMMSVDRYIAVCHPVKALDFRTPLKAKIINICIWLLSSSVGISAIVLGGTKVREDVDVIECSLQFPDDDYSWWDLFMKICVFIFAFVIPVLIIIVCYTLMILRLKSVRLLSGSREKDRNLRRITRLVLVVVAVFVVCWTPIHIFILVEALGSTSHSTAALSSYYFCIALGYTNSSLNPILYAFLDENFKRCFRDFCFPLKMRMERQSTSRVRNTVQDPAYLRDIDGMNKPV
Chain of Signal transducer and activator of transcription 1-alpha/beta (P42224 whole entry): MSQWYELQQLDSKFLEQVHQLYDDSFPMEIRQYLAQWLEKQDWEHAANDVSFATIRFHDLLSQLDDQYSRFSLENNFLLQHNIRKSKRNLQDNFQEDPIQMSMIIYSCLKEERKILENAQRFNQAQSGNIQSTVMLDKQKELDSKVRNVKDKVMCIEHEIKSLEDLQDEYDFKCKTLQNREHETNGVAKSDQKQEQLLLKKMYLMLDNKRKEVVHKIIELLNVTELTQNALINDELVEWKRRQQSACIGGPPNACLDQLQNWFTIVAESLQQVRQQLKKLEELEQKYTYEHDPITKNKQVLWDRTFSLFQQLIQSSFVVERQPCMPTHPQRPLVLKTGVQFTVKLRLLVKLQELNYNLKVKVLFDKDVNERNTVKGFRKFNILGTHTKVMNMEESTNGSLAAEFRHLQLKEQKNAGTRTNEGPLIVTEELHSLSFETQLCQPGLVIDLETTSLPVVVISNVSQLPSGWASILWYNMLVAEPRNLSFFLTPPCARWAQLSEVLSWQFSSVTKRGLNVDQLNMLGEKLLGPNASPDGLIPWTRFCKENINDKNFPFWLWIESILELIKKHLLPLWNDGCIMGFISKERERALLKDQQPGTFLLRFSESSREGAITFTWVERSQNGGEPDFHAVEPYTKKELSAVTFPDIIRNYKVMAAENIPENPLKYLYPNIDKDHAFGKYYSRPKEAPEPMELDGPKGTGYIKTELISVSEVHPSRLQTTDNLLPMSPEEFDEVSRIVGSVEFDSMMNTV
Chain of Signal transducer and activator of transcription 3 (P40763 whole entry): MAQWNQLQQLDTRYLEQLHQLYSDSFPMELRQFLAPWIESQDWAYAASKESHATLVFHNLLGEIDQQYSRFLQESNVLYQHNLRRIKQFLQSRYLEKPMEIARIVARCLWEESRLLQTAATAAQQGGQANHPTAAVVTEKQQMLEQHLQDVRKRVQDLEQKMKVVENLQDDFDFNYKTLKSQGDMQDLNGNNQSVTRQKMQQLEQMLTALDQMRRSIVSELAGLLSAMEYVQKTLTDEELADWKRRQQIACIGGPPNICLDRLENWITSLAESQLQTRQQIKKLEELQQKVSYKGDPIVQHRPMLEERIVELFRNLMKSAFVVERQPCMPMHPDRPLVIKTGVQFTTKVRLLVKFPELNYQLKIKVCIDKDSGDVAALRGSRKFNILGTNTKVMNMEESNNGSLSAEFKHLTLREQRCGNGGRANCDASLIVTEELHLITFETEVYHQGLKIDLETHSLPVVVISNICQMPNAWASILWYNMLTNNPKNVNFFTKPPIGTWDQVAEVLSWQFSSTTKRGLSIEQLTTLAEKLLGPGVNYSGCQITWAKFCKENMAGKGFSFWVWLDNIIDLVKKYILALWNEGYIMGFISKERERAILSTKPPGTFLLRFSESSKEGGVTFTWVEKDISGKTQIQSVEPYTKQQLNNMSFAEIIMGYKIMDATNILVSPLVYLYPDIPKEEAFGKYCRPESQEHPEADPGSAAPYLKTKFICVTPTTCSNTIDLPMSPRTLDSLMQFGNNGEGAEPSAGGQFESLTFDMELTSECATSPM
Chain of Sphingosine 1-phosphate receptor 4 (O95977 whole entry): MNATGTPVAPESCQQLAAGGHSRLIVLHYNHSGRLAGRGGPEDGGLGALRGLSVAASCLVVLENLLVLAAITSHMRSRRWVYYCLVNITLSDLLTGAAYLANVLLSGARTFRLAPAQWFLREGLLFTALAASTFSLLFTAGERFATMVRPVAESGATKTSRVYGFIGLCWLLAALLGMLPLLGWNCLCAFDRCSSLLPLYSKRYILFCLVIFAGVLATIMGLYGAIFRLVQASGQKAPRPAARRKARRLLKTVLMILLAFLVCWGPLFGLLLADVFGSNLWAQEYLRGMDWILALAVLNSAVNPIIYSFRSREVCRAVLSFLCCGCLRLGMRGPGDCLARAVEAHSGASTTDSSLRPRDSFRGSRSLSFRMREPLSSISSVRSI
Chain of Sphingosine 1-phosphate receptor 1 (P21453 whole entry): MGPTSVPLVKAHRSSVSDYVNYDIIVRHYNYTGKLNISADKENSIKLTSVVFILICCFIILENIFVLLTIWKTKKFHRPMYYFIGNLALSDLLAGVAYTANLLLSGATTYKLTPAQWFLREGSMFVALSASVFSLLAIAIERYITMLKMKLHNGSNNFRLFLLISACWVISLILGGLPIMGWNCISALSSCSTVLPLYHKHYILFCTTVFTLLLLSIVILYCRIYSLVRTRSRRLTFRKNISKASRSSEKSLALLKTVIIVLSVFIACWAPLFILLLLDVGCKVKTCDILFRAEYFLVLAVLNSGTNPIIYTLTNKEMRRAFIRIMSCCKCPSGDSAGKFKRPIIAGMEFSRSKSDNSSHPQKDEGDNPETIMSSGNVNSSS

On to `CC(C)n1c(=N)c(C(=O)NCCc2ccccc2)cc2c(=O)n3ccccc3nc21`, for which the values for the EC50 in [1], in [2] and in assay [3] were 15.9 µM (inactive), 5.78 µM (active) and 4.8 µM (active), respectively. The IC50 (in general, the concentration at which inhibition is half-maximal) at Aminopeptidase N was 58.6 µM (active).
With `CCOc1ccc2oc(C(=O)NNC(=O)c3ccccc3O)c(C)c2c1`, the IC50 (in assay [4]; at Exodeoxyribonuclease V) was > 119 µM (inactive) throughout.
Turning to `Cc1ccc2nc(N3C(=O)C(O)=C(C(=O)c4ccc(C)o4)C3c3ccco3)sc2c1` (centres undefined), the half-maximal inhibitory concentration (IC50) in assay [5] is 2.6 µM (active); in assay [6], 22 µM (active). Moreover, in assay [7], the EC50 (usually the concentration that produces a half-maximal response) was 18 µM (active).
Turning to `CCOC(=O)c1c(CN2CCOCC2)n(-c2ccccc2)c2cc(Br)c(O)cc12.Cl`, the “Absolute IC50 (CHOP)” value in assay [8] was determined as 10 µM.
Turning to `N=c1oc2c3c4c(cc2cc1C(=O)Nc1ccccc1)CCCN4CCC3`, the EC50 in assay [9] is 8.27 µM (active); at Troponin, cardiac muscle, > 10.9 nM (active); in [10], > 10.9 nM (active).
Regarding `Fc1ccc(CC2CCN(c3ncnc4sccc34)CC2)cc1`, the IC50 in assay [11] was > 55.7 µM (inactive); in assay [12], 2.54 µM (active).
With `CCCCN(Cc1cc2cc(Cl)ccc2[nH]c1=O)C(=O)c1ccccc1`, the EC50 in assay [13] was > 20 µM (inactive).
For `CCC(CC)CN1C[C@@H]2C(CNC(=O)c3cc(Cl)cc(Cl)c3)[C@@H]2C1` (some centres undefined), the EC50 in assay [14] is 1.2 µM (active).
Regarding `Cc1ccc(Cl)cc1NC(=O)C(=O)N/N=C/c1ccc2c(c1)OCO2`, in [15], the EC50 was 29.6 µM (active).
Turning to `CC(/N=c1\ccccn1C(=O)Nc1cccc(C(F)(F)F)c1)c1ccco1` (centres undefined), at Coagulation factor XII, the IC50 is > 50 µM (inactive).
